In patent US20250197372A1 (priority 2020, published 2025):

How the values were obtained:
Type in all cases: biochemical
[1] = target: T1, recombinant alpha-glucosidase II (murine full-length glucosidase II, alpha and beta subunits, Glu 2) (Mus musculus, UniProt Q8BHN3); experiment: Alpha-glucosidase II assay (4-methylumbelliferyl-alpha-D-pyranoside substrate, fluorescence); conditions: Glucosidase 2; read-out: Glu2 IC50
T1 construct: made in house; host or cells: HEK-293T cells transduced with BacMam viruses (75% alpha, 25% beta); protein harvested from culture supernatant
T1 sequence (O08795 15-521): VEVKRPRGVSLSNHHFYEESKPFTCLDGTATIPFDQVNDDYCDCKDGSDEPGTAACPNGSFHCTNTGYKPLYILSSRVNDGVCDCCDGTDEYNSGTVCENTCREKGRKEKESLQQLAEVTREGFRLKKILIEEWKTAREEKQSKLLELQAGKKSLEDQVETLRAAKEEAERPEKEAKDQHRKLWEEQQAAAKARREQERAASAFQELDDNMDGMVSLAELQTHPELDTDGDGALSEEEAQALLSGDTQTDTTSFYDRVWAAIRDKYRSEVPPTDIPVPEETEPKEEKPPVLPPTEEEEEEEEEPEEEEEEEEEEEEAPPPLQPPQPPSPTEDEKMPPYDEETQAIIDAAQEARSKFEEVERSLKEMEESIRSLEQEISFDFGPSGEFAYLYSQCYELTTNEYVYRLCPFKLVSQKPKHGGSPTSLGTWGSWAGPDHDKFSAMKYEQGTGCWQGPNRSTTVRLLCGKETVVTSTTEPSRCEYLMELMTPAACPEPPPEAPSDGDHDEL
T1 sequence (Q8BHN3 33-944): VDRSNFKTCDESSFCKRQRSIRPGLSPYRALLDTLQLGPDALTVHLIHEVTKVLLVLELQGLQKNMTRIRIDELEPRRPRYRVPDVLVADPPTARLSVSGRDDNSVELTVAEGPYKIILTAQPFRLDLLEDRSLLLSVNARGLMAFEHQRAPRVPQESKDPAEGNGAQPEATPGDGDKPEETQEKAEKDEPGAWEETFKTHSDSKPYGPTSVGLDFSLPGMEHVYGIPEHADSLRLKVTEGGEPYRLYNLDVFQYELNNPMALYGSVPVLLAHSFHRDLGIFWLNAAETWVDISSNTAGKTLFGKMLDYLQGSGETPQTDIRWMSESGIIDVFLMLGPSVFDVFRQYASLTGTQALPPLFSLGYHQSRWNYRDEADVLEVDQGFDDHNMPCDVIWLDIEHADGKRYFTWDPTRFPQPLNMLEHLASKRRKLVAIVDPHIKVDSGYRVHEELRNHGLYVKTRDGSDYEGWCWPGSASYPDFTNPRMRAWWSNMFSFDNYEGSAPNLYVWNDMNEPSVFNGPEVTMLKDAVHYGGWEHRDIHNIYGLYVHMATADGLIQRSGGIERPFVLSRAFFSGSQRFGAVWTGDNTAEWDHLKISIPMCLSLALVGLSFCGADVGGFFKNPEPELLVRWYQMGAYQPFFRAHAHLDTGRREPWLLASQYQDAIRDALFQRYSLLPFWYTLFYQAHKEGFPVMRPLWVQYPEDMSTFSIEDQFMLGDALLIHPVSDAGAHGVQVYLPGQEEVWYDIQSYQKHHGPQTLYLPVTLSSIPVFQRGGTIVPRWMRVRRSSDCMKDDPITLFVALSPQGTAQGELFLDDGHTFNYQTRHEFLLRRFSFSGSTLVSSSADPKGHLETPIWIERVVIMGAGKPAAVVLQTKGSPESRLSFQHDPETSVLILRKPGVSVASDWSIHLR

[2] = target: recombinant human GAA (acid alpha-glucosidase) (Homo sapiens, UniProt P10253); experiment: Acid alpha-glucosidase (GAA) assay (4-methylumbelliferyl-alpha-D-pyranoside substrate, fluorescence)
How it was run: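 IC50 from 4-PL curve fit of percent inhibition, based on fluorescence (365/440 nm) of released methylumbelliferone relative to uninhibited enzyme. Compound dilutions and human GAA incubated 60 min, 37 °C, before 20 min substrate reaction at 37 °C, quenched at pH 10.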

[3] = target: rat maltase (partially purified alpha-glucosidase from intestinal rat powder); experiment: Intestinal alpha-glucosidase assay, maltose substrate (Glucose GO Kit)
How it was run: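 First step: 60 min, 37 °C, compound with partially purified rat intestinal alpha-glucosidase. Next, maltose or sucrose for 30 min at 37 °C, ended at 90 °C for 5 min. Glucose quantified enzymatically; concentration–inhibition data fitted 4-PL for IC50.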

Row | SMILES | IC50 [1] [µM] | IC50 [2] [µM] | IC50 [3] [µM]
1 | [N-]=[N+]=Nc1ccc(NCCN2CC(OCCN3C[C@H](O)[C@@H](O)[C@H](O)[C@H]3CO)C2)c([N+](=O)[O-])c1 [Compound 1271, (2R,3R,4R,5S)-1-{2-[(1-{2-[(4-azido-2-nitrophenyl)amino]ethyl}azetidin-3-yl)oxy]ethyl}-2-(hydroxymethyl)piperidine-3,4,5-triol] | 0.539 | 1.36 | 0.033
2 | OC[C@@H]1[C@@H](O)[C@H](O)[C@@H](O)CN1Cc1ccc(CNc2ccc(Br)cc2)cc1 [Compound 1028, (2R,3R,4R,5S)-1-[(4-{[(4-bromophenyl)amino]methyl}phenyl)methyl]-2-(hydroxymethyl)piperidine-3,4,5-triol] | 0.827 | 0.666 | 0.011
3 | [N-]=[N+]=Nc1ccc(NCCC(O)C(O)CCN2C[C@H](O)[C@@H](O)[C@H](O)[C@H]2CO)c([N+](=O)[O-])c1 (stereo partly drawn) [Compound 1270, (2R,3R,4R,5S)-1-{6-[(4-azido-2-nitrophenyl)amino]-3,4-dihydroxy-hexyl}-2-(hydroxymethyl)piperidine-3,4,5-triol] | 0.046 | 0.19 | 0.057
4 | OC[C@@H]1[C@@H](O)[C@H](O)[C@@H](O)CN1Cc1cnc(CNc2cc(-c3ncccn3)cc(C3CC3)c2)cn1 [Compound 1329, (2R,3R,4R,5S)-1-{[5-({[3-cyclopropyl-5-(pyrimidin-2-yl)phenyl]amino}methyl)pyrazin-2-yl]methyl}-2-(hydroxymethyl)piperidine-3,4,5-triol] | 2.55 | 0.05 | 0.548
5 | [N-]=[N+]=Nc1ccc(N2CCN(CCN3C[C@H](O)[C@@H](O)[C@H](O)[C@H]3CO)CC2)c([N+](=O)[O-])c1 [Compound 1254, (2R,3R,4R,5S)-1-{2-[4-(4-azido-2-nitrophenyl)piperazin-1-yl]ethyl}-2-(hydroxymethyl)piperidine-3,4,5-triol] | 0.865 | > 100 | 1.21
6 | NC(=O)c1cc(-c2ncccn2)ccc1NCCCCCCN1C[C@H](O)[C@@H](O)[C@H](O)[C@H]1CO [Compound 1266, 5-(pyrimidin-2-yl)-2-({6-[(2R,3R,4R,5S)-3,4,5-trihydroxy-2-(hydroxymethyl)piperidin-1-yl]hexyl}amino)benzamide] | 0.007 | 0.103 | 0.002
7 | [N-]=[N+]=Nc1ccc(NCCNC(=O)NCCN2C[C@H](O)[C@@H](O)[C@H](O)[C@H]2CO)c([N+](=O)[O-])c1 [Compound 1276, 1-{2-[(4-azido-2-nitrophenyl)amino]ethyl}-3-{2-[(2R,3R,4R,5S)-3,4,5-trihydroxy-2-(hydroxymethyl)piperidin-1-yl]ethyl}urea] | 0.039 | 0.253 | 0.049
8 | Cc1cc(NCc2ccc(CN3C[C@H](O)[C@@H](O)[C@H](O)[C@H]3CO)cc2)cc(-c2ncco2)c1 [Compound 1315, (2R,3R,4R,5S)-2-(hydroxymethyl)-1-{[4-({[3-methyl-5-(1,3-oxazol-2-yl)phenyl]amino}methyl)phenyl]methyl}piperidine-3,4,5-triol] | 0.907 | 0.44 | 0.009
9 | Cc1cc(NCc2cccc(CN3C[C@H](O)[C@@H](O)[C@H](O)[C@H]3CO)c2)cc(-c2cccnn2)c1 [Compound 1034, (2R,3R,4R,5S)-2-(hydroxymethyl)-1-{[3-({[3-methyl-5-(pyridazin-3-yl)phenyl]amino}methyl)phenyl]methyl}piperidine-3,4,5-triol] | 10 | 2.71 | 0.033
10 | Nc1ccc(NCCn2cc(CCN3C[C@H](O)[C@@H](O)[C@H](O)[C@H]3CO)nn2)c([N+](=O)[O-])c1Cl [Compound 1253, (2R,3R,4R,5S)-1-[2-(1-{2-[(4-amino-3-chloro-2-nitrophenyl)amino]ethyl}-1H-1,2,3-triazol-4-yl)ethyl]-2-(hydroxymethyl)piperidine-3,4,5-triol] | 0.225 | 0.664 | 0.777
11 | N#CCc1ccc(NCCCCCCN2C[C@H](O)[C@@H](O)[C@H](O)[C@H]2CO)c([N+](=O)[O-])c1 [Compound 1299, 2-[3-nitro-4-({6-[(2R,3R,4R,5S)-3,4,5-trihydroxy-2-(hydroxymethyl)piperidin-1-yl]hexyl}amino)phenyl]acetonitrile] | 0.017 | 0.032 | 0.005
12 | Cc1cc(NCc2cccc(CN3C[C@H](O)[C@@H](O)[C@H](O)[C@H]3CO)n2)cc(-c2ccco2)c1 [Compound 1334, (2R,3R,4R,5S)-1-{[6-({[3-(furan-2-yl)-5-methylphenyl]amino}methyl)pyridin-2-yl]methyl}-2-(hydroxymethyl)piperidine-3,4,5-triol] | > 100 | 0.714 | 0.224
13 | COc1ccc(C#CCCCCCN2C[C@H](O)[C@@H](O)[C@H](O)[C@H]2CO)cc1 [Compound 1338, (2R,3R,4R,5S)-2-(hydroxymethyl)-1-[7-(4-methoxyphenyl)hept-6-yn-1-yl]piperidine-3,4,5-triol] | 0.109 | 0.86 | 0.146
14 | [N-]=[N+]=Nc1ccc(NCCCCCCN2C[C@H](O)[C@@H](O)[C@H](O)[C@H]2CO)c(C(N)=O)c1 [Compound 1296, 5-azido-2-({6-[(2R,3R,4R,5S)-3,4,5-trihydroxy-2-(hydroxymethyl)piperidin-1-yl]hexyl}amino)benzamide] | 0.029 | 0.124 | < 0.01
15 | [N-]=[N+]=Nc1ccc(NCCn2cc(CCN3C[C@H](O)[C@@H](O)[C@H](O)[C@H]3CO)nn2)c([N+](=O)[O-])c1 [Compound 1272, (2R,3R,4R,5S)-1-[2-(1-{2-[(4-azido-2-nitrophenyl)amino]ethyl}-1H-1,2,3-triazol-4-yl)ethyl]-2-(hydroxymethyl)piperidine-3,4,5-triol] | 0.039 | 0.8 | 0.239
16 | CN(C)Cc1ccc(NCCCCCCN2C[C@H](O)[C@@H](O)[C@H](O)[C@H]2CO)c(C(F)(F)F)c1 [Compound 1259, (2R,3R,4R,5S)-1-[6-({4-[(dimethylamino)methyl]-2-(trifluoromethyl)phenyl}amino)hexyl]-2-(hydroxymethyl)piperidine-3,4,5-triol] | 0.072 | 0.238 | 0.02
17 | Cc1cc(-c2ncccn2)ccc1NCCCCCCN1C[C@H](O)[C@@H](O)[C@H](O)[C@H]1CO [Compound 1233, (2R,3R,4R,5S)-2-(hydroxymethyl)-1-(6-{[2-methyl-4-(pyrimidin-2-yl)phenyl]amino}hexyl)piperidine-3,4,5-triol] | 0.023 | 1.03 | 0.032
18 | CC#Cc1ccc(NCCCCCCN2C[C@H](O)[C@@H](O)[C@H](O)[C@H]2CO)c([N+](=O)[O-])c1 [Compound 1290, (2R,3R,4R,5S)-2-(hydroxymethyl)-1-(6-{[2-nitro-4-(prop-1-yn-1-yl)phenyl]amino}hexyl)piperidine-3,4,5-triol] | 0.0012 | 0.021 | < 0.01
19 | COCCc1ccc(CCCN2C[C@H](O)[C@@H](O)[C@H](O)[C@H]2CO)cc1 [Compound 1308, (2R,3R,4R,5S)-2-(hydroxymethyl)-1-{3-[4-(2-methoxyethyl)phenyl]propyl}piperidine-3,4,5-triol] | 0.125 | 1.68 | 0.088
20 | COc1ccc(CCCCCCCN2C[C@H](O)[C@@H](O)[C@H](O)[C@H]2CO)cc1 [Compound 1309, (2R,3R,4R,5S)-2-(hydroxymethyl)-1-[7-(4-methoxyphenyl)heptyl]piperidine-3,4,5-triol] | 0.037 | 0.263 | 0.022
21 | COc1cc(NCCCCCCN2C[C@H](O)[C@@H](O)[C@H](O)[C@H]2CO)cc(-c2ncc[nH]2)c1 [Compound 1219, (2R,3R,4R,5S)-2-(hydroxymethyl)-1-(6-{[3-(1H-imidazol-2-yl)-5-methoxyphenyl]amino}hexyl)piperidine-3,4,5-triol] | 0.018 | 0.089 | 0.01
22 | [N-]=[N+]=Nc1ccc(NCCCCCCN2C[C@H](O)[C@@H](O)[C@H](O)[C@H]2CO)c(C(=O)O)c1 [Compound 1297, 5-azido-2-({6-[(2R,3R,4R,5S)-3,4,5-trihydroxy-2-(hydroxymethyl)piperidin-1-yl]hexyl}amino)benzoic acid] | 0.097 | 0.452 | 0.169
23 | Cc1cc(NCc2cnc(CN3C[C@H](O)[C@@H](O)[C@H](O)[C@H]3CO)cn2)cc(N2CCOCC2)c1 [Compound 1332, (2R,3R,4R,5S)-2-(hydroxymethyl)-1-{[5-({[3-methyl-5-(morpholin-4-yl)phenyl]amino}methyl)pyrazin-2-yl]methyl}piperidine-3,4,5-triol] | > 100 | 0.165 | 0.573
24 | COCCCCCN(CCCNc1ccc(N=[N+]=[N-])cc1[N+](=O)[O-])CCCN1C[C@H](O)[C@@H](O)[C@H](O)[C@H]1CO [Compound 1221, (2R,3R,4R,5S)-1-[3-({3-[(4-azido-2-nitrophenyl)amino]propyl}(5-methoxypentyl)amino)propyl]-2-(hydroxymethyl)piperidine-3,4,5-triol] | 0.22 | 4.51 | 0.233
25 | OC[C@@H]1[C@@H](O)[C@H](O)[C@@H](O)CN1CCCCCCNc1cc(Cl)cc(-c2ncccn2)c1 [Compound 1212, (2R,3R,4R,5S)-1-(6-{[3-chloro-5-(pyrimidin-2-yl)phenyl]amino}hexyl)-2-(hydroxymethyl)piperidine-3,4,5-triol] | 0.005 | 0.047 | 0.002
